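48-hour exposure; five concentrations; linearly interpolated endpoints. Definition used: TGI = concentration required for complete inhibition of growth.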

Common to all, as to experiment: inhibition of tumour cell growth, NCI panel, 48 h
The test system of experiment [1] is SNB-75 CNS.
Experiment [2] deals with 786-0 renal.
For experiment [3], the system named is NCI-H23 lung.
For experiment [4], the system named is SF-268 CNS.
In experiment [5] the test system is CAKI-1 renal.
Experiment [6] relates to T-47D breast.
In experiment [7] the test system is HT29 colon.
Experiment [8] deals with BT-549 breast.
The test system of experiment [9] is A549 NSCLC.
Experiment [10] deals with HCT-15 colon.
In experiment [11] the test system is HS 578T breast.
The subject of experiment [12] is TK-10 renal.
Experiment [13] has as its system NCI-H522 lung.
The subject of experiment [14] is SW-620 colon.
Experiment [15] concerns HOP-92 NSCLC.
The subject of experiment [16] is SK-MEL-2 melanoma.
Experiment [17] has as its system IGROV1 ovarian.
For experiment [18], the system named is HCC-2998 colon.
For experiment [19], the system named is SK-MEL-5 melanoma.
Experiment [20] deals with DU-145 prostate.

On to `O=C(c1cc2ccccc2[nH]1)N1C2CCC1CN(CCOC(c1ccc(F)cc1)c1ccc(F)cc1)CC2` (stereo not given), for which the TGI in [1], in [2], in experiment [3], in [4], in experiment [5] and in experiment [6] was more than 100 µM each time. The TGI in [7], in [8], in experiment [9], in experiment [10], in experiment [11] and in experiment [12] was more than 100 µM in each case. Further, the TGI in experiment [13], in experiment [14], in [15], in experiment [16], in experiment [17] and in experiment [18] was more than 100 µM each time. Besides, the TGI in experiment [19] and in experiment [20] was more than 100 µM each time.

As for `CCCC(=O)NC(Nc1cc(C)ccn1)(C(=O)OCC)C(F)(F)F` (stereo not given), the TGI in experiment [1], in [2], in [3], in [4], in experiment [5] and in [6] was more than 100 µM each time. The TGI in [7], in experiment [8], in experiment [9], in experiment [10], in experiment [11] and in [12] was more than 100 µM throughout. Moreover, the TGI in experiment [13], in [14], in experiment [15], in [16], in experiment [17] and in experiment [18] was more than 100 µM each time. The TGI in experiment [19] and in [20] was more than 100 µM throughout.

Consider `CCCCCCCCCCCCCCCCCCNc1ccn(C2OC(COP(=O)(O)OCC3OC(n4cc(C)c(=O)[nH]c4=O)CC3F)C(O)C2O)c(=O)n1` (stereo not given), for which the TGI is 37.6 µM in [1]; 9.52 µM in [2]; 17.9 µM in [3]; 19.5 µM in experiment [4]; 16.8 µM in experiment [5]; 44.2 µM in [6]. Further, the TGI in [7] was more than 55 µM; in experiment [8], 11 µM; in experiment [9], 46.7 µM; in experiment [10], 15.9 µM; in [11], 50.3 µM; in experiment [12], 9.9 µM. In addition, the TGI is 9.04 µM in experiment [13]; 12.3 µM in [14]; 37.5 µM in [15]; 19.4 µM in experiment [16]; 17.9 µM in experiment [17]; 13.5 µM in experiment [18]. The values for the TGI in experiment [19] and in experiment [20] were 44.9 µM and 46.2 µM, respectively.

In the case of `COc1cc(C(=O)/C=C/c2ccc(OCCSCCCCCCCCCCSCCOc3ccc(/C=C/C(=O)c4cc(OC)c(OC)c(OC)c4)cc3)cc2)cc(OC)c1OC`, the TGI in experiment [1], in [2], in experiment [3], in experiment [4], in experiment [5] and in [6] was more than 100 µM in each case. Also, the TGI in [7], in [8], in experiment [9], in [10], in [11] and in experiment [12] was more than 100 µM each time. For the same compound, the TGI in experiment [13], in experiment [14], in experiment [15], in experiment [16], in experiment [17] and in [18] was more than 100 µM in each case. Moreover, the TGI in experiment [19] and in [20] was more than 100 µM throughout.

For `Cc1ccc(S(=O)(=O)CN2C(=O)C(c3ccccc3)(c3ccccc3)C23OC(c2ccc(Cl)cc2)=CC3=O)cc1` (stereo not given), the TGI in experiment [1], in experiment [2], in experiment [3], in experiment [4], in experiment [5] and in experiment [6] was more than 10 µM throughout. Also, the TGI in [7], in experiment [8], in [9], in experiment [10], in experiment [11] and in experiment [12] was more than 10 µM in each case. The TGI in [13], in experiment [14], in experiment [15], in [16], in [17] and in experiment [18] was more than 10 µM in each case. Further, the TGI in [19] and in experiment [20] was more than 10 µM in each case.

As to `O=[N+]([O-])c1ccc(-c2cc(O)c3nc4ccccc4n3c2)cc1`, the TGI is more than 76.2 µM in experiment [1]; more than 100 µM in experiment [2]; more than 100 µM in [3]; more than 100 µM in [4]; more than 100 µM in experiment [5]; more than 100 µM in experiment [6]. Besides, the TGI in [7], in [8], in [9], in [10], in experiment [11] and in experiment [12] was more than 100 µM each time. Moreover, the TGI in [13], in experiment [14], in [15], in experiment [16], in experiment [17] and in experiment [18] was more than 100 µM each time. Further, the TGI in experiment [19] and in experiment [20] was more than 100 µM throughout.

On to `CCCCNc1nc2ccccc2c2c1ncn2CC(C)C`, for which the TGI in [1], in experiment [2], in [3], in experiment [4], in [5] and in experiment [6] was more than 100 µM throughout. Besides, the TGI in experiment [7], in experiment [8], in experiment [9], in [10], in experiment [11] and in experiment [12] was more than 100 µM in each case. Moreover, the TGI in experiment [13], in [14], in experiment [15], in experiment [16], in experiment [17] and in [18] was more than 100 µM throughout. In addition, the TGI in experiment [19] and in experiment [20] was more than 100 µM in each case.

Values taken from PubChem BioAssay (NCI).
